Laboratory results published in US8779202B2, “Compositions and methods for the treatment of giardiasis” (Georgetown University, priority 2009, dated 2014).

Assays:
[1] = test system: Giardia parasite cultures; assay: Reversibility of compound effect on Giardia viability and attachment; assay type: cell-based, Giardia lamblia; conditions: 15 μM, 30 minutes-2 hours in PBS at 37° C., wash, 48 hours in growth media
Method: Parasite cultures were treated for 30 minutes—2 hours with 15 μM of Compounds I-16, III-1, IV-1, V-1, VI-1, VII-1, and VIII-2A in PBS at 37° C. Parasites were then washed with warm PBS to remove compounds, and were placed in normal Giardia growth media for an additional 48 hours. […] All comparisons were made to cultures of untreated Giardia.

[2] = test system: Giardia parasites; assay: Video microscopy of parasite morphology and dynamics; assay type: cell-based, Giardia lamblia; conditions: for Observed Parasite Morphology and Dynamics: Table I, video microscopy at 50, 15, 10, 5 and 1 μM
Method: A series of video microscopy studies were undertaken to examine the effect of the compounds on parasite morphology and dynamics. Short 1 minute videos of parasite behavior were recorded using DIC optics on a Zeiss AXIOPLAN microscope (Carl Zeiss Microimaging GmbH, Germany) using a Photometrics CCD camera (Photometrics, Inc.; Tucson, Ariz.). Recordings were made on at least three separate occasions at compound concentrations of 50 μM, 15 μM, 10 μM, 5 μM, and 1 μM to allow comparison to the dose-response curves in the attachment assay. Four broad categories of compound action were found (see Table I).

Row | Compound | reversibility of effect on parasite attachment and viability [1] | effect on parasite morphology and activity [2] | Observed Parasite Morphology and Dynamics [2]
1 | O=C1C=C(N2CCN(c3ccccn3)CC2)C(=O)c2c(O)ccc(O)c21 [Compound IV-1] | irreversible | profoundly disrupted parasite morphology or simply destroyed the parasites | Parasites display a profoundly disrupted morphology
2 | Cc1c(Cl)cc(C(C)(C)C)c(O)c1Cc1c(C)c(Cl)cc(C(C)(C)C)c1O [Compound VI-1] | largely reversible | disrupted peripheral morphology, resulting either in loss of overall shape or localized membrane blebbing | Parasites display disrupted peripheral morphology,
3 | Nc1nc(SCc2ccccc2[N+](=O)[O-])c2[nH]cnc2n1 [Compound V-1] | largely reversible | disrupted peripheral morphology, resulting either in loss of overall shape or localized membrane blebbing | –
4 | Nogalamycin [Compound VII-1] | largely reversible | no observable effect on Giardia morphology, but did cause flagellar paralysis | Parasites display disrupted peripheral morphology,
5 | CC(Br)C(=O)c1ccc2cc(Br)c3ccccc3c2c1 (centres unmarked) [Compound III-1] | irreversible | profoundly disrupted parasite morphology or simply destroyed the parasites | Parasites display a profoundly disrupted morphology
6 | C[C@H]1CC[C@@H]2[C@@H](C)[C@H]3[C@H](C[C@H]4[C@@H]5CC=C6C[C@@H](O)CC[C@]6(C)[C@H]5CC[C@]34C)N2C1 [Compound VIII-2A] | largely reversible | no observable effect on parasite morphology and activity, but did significantly reduce attachment | Parasites appear normal in morphology and activity,
7 | Oc1ccc2ccccc2c1CN(Cc1c(O)ccc2ccccc12)C1CCCCC1 [Compound I-16] | largely reversible | no observable effect on parasite morphology and activity, but did significantly reduce attachment | Parasites appear normal in morphology and activity,
